Reference: patent publication US4632922A, “Oxomorpholinyl dimer and rescue of anthracycline and mitomycin C damage” (The United States of America as represented by the …, priority 1985, dated 1986)

Tests used:
[1] = Kinetic measurements of TM3 reactivity with anthracycline compounds in methanol solvent; conditions: reaction with TM3, 25° C.
Description: Kinetic measurements of TM3 reactivity
with anthracycline compounds at 25° C. in methanol solvent.

DOX-induced injury = conditions: cited from earlier work; for reduction of size of ulceration: animal models
[2] = Kinetics of reaction of DHM3 with daunorubicin in water solvent; conditions: over the first 85 sec, water, 10° C., ten-fold excess DHM3
Description: A test similar to that described for the same reaction in methanol solvent (vide supra) was run. Oxomorpholinyl dimer DHM3 (1.38 mg, 4.37×10^-3 mmol) was dissolved in 0.5 ml of oxygen-free methanol and quickly transferred without delay into one compartment of the cell. The solvent was promptly removed under vacuum. Daunorubicin hydrochloride ([…]) was dissolved in 100 ml of an aqueous solution of Tris (24.2 mg) and Tris hydrochloride (31.6 mg) and 2.6 ml of this solution (4.18×10^-4 mmol of 6) was introduced into the other compartment of the cell. The sample was freeze-thaw degassed over three cycles as described above, sealed, and placed in a thermostatted cell holder at 10.0±0.1° C. for about 20 min prior to mixing. Full spectra between 320 and 800 nm were recorded every 10 sec for the first 125 sec, and then every 20 sec. From the absorbance change at 620 nm over the first 85 sec (50% reaction of daunorubicin), a non-linear least-squares treatment gave a first order rate constant for bond homolysis of DHM3 (k1) equal to 6×10^-4 sec^-1 and a first order rate constant for destruction of 7 (k2) equal to 2×10^-2 sec^-1. Treatment of the data obtained in the 164-225 sec interval gave k2 =2.8×10^-2 sec^-1.
Thus, when a ten-fold excess of DHM3 is reacted with an oxygen-free 2×10^-4 M solution of 6 in buffered water (pH8) at 10° C., the absorbance of the solution at 618-620 nm, due to the tautomer 7, reaches its maximum after 125 sec and then decreases quickly, with an 80% decrease in 100 sec. Here again the formation and destruction of 7, as calculated from the data obtained in the first 85 sec of reaction, follows consecutive first order kinetics, first order in DHM3 and 7, with k1 =6×10^-4 sec^-1, k2 =2×10^-2 sec^-1 and ε7 =9600. Calculation of k2 from the absorbance data taken after 165 sec of reaction time, when only first order destruction of 7 is observed, gives a value of 2.8×10^-2 sec^-1.

swine skin = assay: Skin lesions after intradermal DOX in swine; assay type: in vivo, miniature white swine
Description: In order to produce anthracycline induced tissue damage, clinical grade doxorubicin (DOX) hydrochloride was obtained as a representative anthracycline chemical from the Drug Synthesis Branch, Developmental Therapeutics Program, National Cancer Institute. Each vial contained 10 mg DOX hydrochloride and 50 mg lactose which was reconstituted with 5.0 ml sterile 0.9% NaCl solution to give a final drug concentration of 2.0 mg/ml. DHM3 solution was prepared by dissolving 10 mg in ice-cold water which had been purged with N2 gas for 5 minutes. Dissolution was facilitated by brief sonication to give a final concentration of 10 mg/ml. The solution was kept cold (≈4° C.) and protected from air and light.
Female weanling miniature white swine weighing approximately 12 kg were obtained from the Veterinary Resources Branch, National Institutes of Health. The development of this strain of swine has been described previously (Sachs, et al., Transplantation 22:559-567, 1976). Each animal was housed in a 6×4 ft metabolic cage and was fed standard NIH show chow, 1.5 lbs twice daily.
DOX HCl (2.0 mg/ml) was administered intradermally (i.d.) with a 25 gauge needle inserted approximately 4 to 5 mm into the skin. Following the injection of 0.5, 0.75 or 1.0 ml (1.0, 1.5, or 2.0 mg, respectively) DOX solution, the syringe was removed from the hub leaving the needle in place. After the indicated time interval, 1.0 ml (10 mg) DHM3 was injected through the same needle and the needle was then removed. Control sites received 1.0 ml sterile water instead of DHM3. The injection sites were along the mid-lateral aspect of each side of the swine and were 4-5 cm apart (6-8 injection sites per side). One animal was used for a dose experiment where DOX, 0.5 ml/site was injected along one side and 1.0 ml/site was injected along the contralateral side. Fifteen minutes later, DHM3 or water was injected into alternating sites as described above. A second animal received DOX, 0.75 ml/site along both sides. DHM3 or water was injected into alternating sites at times varying from 5 to 120 minutes following DOX administration.
All lesions were measured by a single observer with metric calipers three times weekly for two weeks, followed by weekly measurements thereafter. The areas of skin ulceration and induration were estimated by the product of the cross perpendicular diameters. The total toxicity of DOX-induced skin ulceration was determined by calculating the area under the ulceration-time curve (AUC) in mm^2 -days.
In order to assess the extent of tissue injury following intradermal DOX or DHM3, incisional biopsies were performed on representative lesions 6 and 20 days following drug injection. These samples were placed in 10% buffered formalin and processed for examination by standard light microscopy (Pathco Inc., Potomac, MD.).

[3] = Solubility of 7-deoxydaunorubicinone in the aqueous reaction medium; assay type: physicochemical; conditions: water, pH8

CC[C@@]1(O)C[C@H](O[C@H]2C[C@H](N(C)C)[C@H](O[C@H]3C[C@H](O)[C@H](O[C@H]4CCC(=O)[C@H](C)O4)[C@H](C)O3)[C@H](C)O2)c2c(cc3c(c2O)C(=O)c2c(O)cccc2C3=O)[C@H]1C(=O)OC [ACLARUBICIN]
RATE CONSTANT k2 [1]: 0.0009 s⁻¹

Cc1c(C)c2c(c(C)c1O)CCC(C)(CCCC(C)CCCC(C)CCCC(C)C)O2 (stereo not drawn) [alpha-tocopherol]
reduction of size of ulceration (DOX-induced injury): purported to reduce the size of ulceration in some animal models but not in all

COc1cccc2c1C(=O)c1c(O)c3c(c(O)c1C2=O)C[C@@](O)(C(C)=O)C[C@@H]3O[C@H]1C[C@H](N)[C@H](O)[C@H](C)O1 [daunorubicin, reference compound]
reaction of daunorubicin [2]: 50% | RATE CONSTANT k2 [1]: 0.013 s⁻¹

CO[C@@H]1C[C@](C)(O)Cc2cc3c(c(O)c21)C(=O)c1c(O)cc2c(c1C3=O)O[C@@H]1O[C@@]2(C)[C@H](O)[C@@H](N(C)C)[C@@H]1O [MENOGARIL]
RATE CONSTANT k2 [1]: 0.0025 s⁻¹

COc1cccc2c1C(=O)c1c(O)c3c(c(O)c1C2=O)C[C@@](O)(C(=O)CO)C[C@@H]3O[C@H]1C[C@H](N)[C@H](O)[C@H](C)O1 [DOX, doxorubicin]
RATE CONSTANT k2 [1]: 0.011 s⁻¹ | dose dependence of skin ulceration size (swine skin; DOX 0.5 to 1.0 ml (2.0 mg/ml) i.d.): linearly dependent on the dose | start of ulcer formation following DOX (swine skin; DOX i.d.): 7 to 8 days | time to complete healing of ulcer (swine skin; DOX i.d.): ≤ 7 weeks | time to maximal ulcer size following DOX (swine skin; DOX i.d.): 3 weeks | microscopic appearance of lesions (swine skin; DOX i.d., biopsy): extensive coagulation-type necrosis of epidermis, dermis, and subcutaneous tissue, including muscle | ulcer following DOX, compared with present results (DOX-induced injury; 2 mg/site i.d., swine, Okano et al. 1983): smaller and more variable ulcer

CC(=O)C1(O)Cc2c(O)c3c(c(O)c2C(OC2CC(N)C(O)C(C)O2)C1)C(=O)c1ccccc1C3=O (stereo not shown) [4-DEMETHOXYDAUNORUBICIN, 4-demethoxydaunorubicin]
RATE CONSTANT k2 [1]: 0.009 s⁻¹

COc1cccc2c1C(=O)c1c(O)c3c(c(O)c1C2=O)CC(O)(C(C)=O)CC3 (stereo not shown) [compound 8, 7-deoxydaunorubicinone]
solubility [3]: sparingly soluble

C[S+](C)[O-] [dimethyl sulfoxide]
reduction of size of ulceration (DOX-induced injury): purported to reduce the size of ulceration in some animal models but not in all | severity of DOX-induced injury (DOX-induced injury; swine model, Okano et al. 1983): appeared to ameliorate the severity of injury
